Laboratory results as given in publication PMC13252604, “First Generation Proteolysis Targeting Chimeras (PROTACs) for the Treatment of Progeria” (Advanced Science, 2026).

Assays:
human serum albumin = human serum albumin (Homo sapiens, UniProt P02768); test: Human serum albumin binding
Text: TABLE 1 Pharmacokinetic parameters of PROTAC 2. | column: HSA binding ^c

[1] = In vivo pharmacokinetic analysis; settings: mouse, i.p. 25 mg/kg
Procedure: FIGURE 8 (A) In vivo pharmacokinetic (PK) analysis of compound 2 (mean±sem, n = 2 per time point). (B) Body weight throughout the 7‐week treatment. Mice of the indicated genotypes (mean±sem, n = 2) were treated with compound 2 or vehicle, starting at 6 weeks of age. (C) Progerin and H3K9Me3 levels in lung and liver, respectively, of mice treated for 7 weeks. Representative cropped immunoblots are shown. MW, molecular weight (in kDa) markers. […] TEXT PRINTED IN THE PICTURE: (A) no label printed: VD (L·Kg^-1): 11± 5 (Dose (D) (mg·Kg^-1): 25); Ke (h^-1): 0.9± 0.1 (Dose (D) (mg·Kg^-1): 25); t1/2 (h): […] (Dose (D) (mg·Kg^-1): 25); AUC (mg·h·L^-1): 3±1 (Dose (D) (mg·Kg^-1): 25); CL (L·Kg^-1·h^-1): 10±5 (Dose (D) (mg·Kg^-1): 25) DOUBTS OF THE COPYIST ABOUT THIS PICTURE: Panel A: the picture prints no substance label beside the pharmacokinetic table, so the label is left empty. "Cpd 2" is printed only in panel B. […]
All scientific procedures with animals were conformed to EU Directive 2010/63 EU and Recommendation 2007/526/EC, enforced in Spanish law under Real Decreto 53/2013.
Animal protocols were approved by the Committee of Animal Experimentation of Universidad Complutense de Madrid and the Animal Protection Area of the Comunidad Autónoma de Madrid (PROEX 114.4/24). Animal studies were carried out in LmnaG609G/G609G knock-in mice ubiquitously expressing progerin[19] and control Lmna+/+ littermates, obtained by breeding LmnaG609G/+ mice kindly donated by Prof. V. Andrés (CNIC, Spain). Mice were maintained in the animal facility of the Universidad Complutense de Madrid under specific pathogen free conditions.
For pharmacokinetic studies, compound 2 was administered intraperitoneally and blood was collected at the selected time points post-dose (n=2-3 per time point) by cardiac puncture. Blood was allowed to clot at room temperature for 30 min and centrifuged at 4 °C for 10 min at 10000g. The supernatant was transferred to a clean polypropylene tube and stored at -80 °C until analysis. For analysis, a volume of cold acetonitrile was added to the serum. The sample was incubated in an ice bath for 10 min and centrifuged at 4 °C for 10 min at 18000g. The resulting organic layer was filtered through a polytetrafluoroethylene filter (0.2 µm, 13 mm diameter, Agilent Technologies) and 30 µL of the sample analyzed by liquid chromatography coupled to mass spectrometry multiple reaction monitoring at the UCM’s Mass Spectrometry CAI. Separation was performed using a Phenomenex Gemini 5 µm C18 110Å 150x2 mm column (run time 9 min; flow 0.7 mL/min; gradient: 0 min 5% B; 4-7 min 100% B; 7.5 min 5% B; Phase A: water with formic acid 0.1%; Phase B: acetonitrile). […]
UHPLC with an oven temperature of 31.5 °C. The mass spectrometer ion optics were set in the multiple reaction monitoring mode and the transition selected for quantification […]
For in vivo treatment, compound 2 was administrated at a concentration of 25 mg/kg diluted in sterile corn oil (Sigma-Aldrich) intraperitoneally three times per week starting at the age of 6 weeks. The same quantity of corn oil was injected to control […]
After 7 weeks of treatment, mice were euthanized by CO2 inhalation. […] For immunoblot analysis, a portion of the corresponding tissue was homogenized, and the protein concentration was determined. Samples containing equivalent amounts of total protein were then subjected to polyacrylamide gel electrophoresis and analyzed as […]

Sequence of human serum albumin (P02768 25-609): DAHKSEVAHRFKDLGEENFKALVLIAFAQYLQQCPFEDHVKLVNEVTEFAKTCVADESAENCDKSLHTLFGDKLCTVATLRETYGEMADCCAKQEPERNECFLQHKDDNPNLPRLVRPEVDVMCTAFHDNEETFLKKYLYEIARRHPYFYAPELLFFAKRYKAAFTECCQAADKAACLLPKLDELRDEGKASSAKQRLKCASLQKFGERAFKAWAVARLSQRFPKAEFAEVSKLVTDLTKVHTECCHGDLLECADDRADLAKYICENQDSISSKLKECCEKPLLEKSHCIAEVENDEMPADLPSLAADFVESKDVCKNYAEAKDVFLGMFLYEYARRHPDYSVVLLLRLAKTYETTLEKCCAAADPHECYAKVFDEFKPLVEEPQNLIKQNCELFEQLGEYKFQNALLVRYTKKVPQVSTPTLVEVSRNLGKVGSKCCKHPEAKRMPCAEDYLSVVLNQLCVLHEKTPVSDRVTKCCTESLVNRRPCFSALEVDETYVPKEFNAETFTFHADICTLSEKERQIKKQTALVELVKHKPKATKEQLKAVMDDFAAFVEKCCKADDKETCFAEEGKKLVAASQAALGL

Q: With `CC1(C)Oc2cc3oc(=O)ccc3cc2C[C@@H]1OC(=O)CCCCCNc1cccc2c1C(=O)N(C1CCC(=O)NC1=O)C2=O` (stereo partly shown) [compound 2] as the compound, how does the HSA binding (human serum albumin) read?
A: 99%

Q: What about the Kd (human serum albumin; read-out: HSA binding K D) of the same compound?
A: 5.8 µM

Q: What about the concentration at 1 h ([1]; ip, serum, 1 h, read-out: levels of the compound 1 h after administration) of the same compound?
A: ~1500 ng/mL

Q: What about the signs of toxicity [1] of the same compound?
A: no evident signs of toxicity

Q: What about the half-life ([1]; serum, ip, 25 mg/kg, read-out: t1/2 (half‐life) (converted)) of the same compound?
A: ~2 h

Q: And the AUC ([1]; serum, ip)?
A: 3000 ± 1000 ng·h/mL

Q: And the k el ([1]; serum, ip, read-out: Ke (converted))?
A: 0.00025 s⁻¹
